Key:
[1] = Stability of the analytes in rat plasma (QC samples); format: in vitro ADME; settings: deviation from nominal conc
Protocol: The stabilities of the 7 analytes in rat plasma was evaluated by assaying six replicates of QC samples at low, middle, and high concentrations in practical experimental conditions: samples post-preparation stored in auto-sampler condition for 12 h, and storage at -80°C for 1 month. The freeze- thaw stability was determined after the experience of three freeze-thaw cycles (from -80°C to room temperature). Samples were identified as stable if the accuracy bias was within 15.0% of the nominal concentration.

[2] = Qualitative LC/MS-MS identification in hippocampus and cortex after oral ZQ extract; format: in vivo, Sprague–Dawley rats; settings: acute depressive rats, 0.5 h after oral ZQ extract 20 g/kg
Protocol: To identify the main active compounds of ZQ in target tissue, six rats subjected to FST were sacrificed under anesthesia 0.5 h after oral administration of ZQ extract (20 g/kg), and then the hippocampal and cortex tissue was separated rapidly from the brain on an ice tray and stored at -80°C. All tissues (∼50.0 mg) were homogenized with 1.5 mL of ice-cold 0.9% saline.
(§1) Sample (200 μL) and 10 μL of mixed IS solution containing sulfamethoxazole (754 ng/mL) and honokiol (274 ng/mL) was added to Eppendorf tubes and extracted with 1 mL acetonitrile. The mixed solution was vortexed for 3 min and centrifuged at 10000 rpm for 10 min at 4°C to acquire the supernatant. The supernatant (800 μL) was moved to a clean Eppendorf tube, and then desiccated under a flow of nitrogen at 40°C. Finally, the residue was redissolved in 100 μL acetonitrile/water (90:10, v/v) with vortex-mixing for 3 min and centrifuged at 13000 rpm for 10 min. A 10 μL aliquot of the sample was injected into the LC/MS/MS system for analysis.

[3] = set-up: method as in Tong et al., 2012; settings: oral ZQ 3.2 g/kg, ref Tong et al., 2012; cited from earlier work
[4] = Pharmacokinetic study in plasma of acute depressive rats after oral ZQ extract (LC-MS/MS); format: in vivo, Sprague–Dawley rats; settings: oral ZQ extract 20 g/kg; for AUC / AUC(0-t) / Cmax / Tmax / half-life: Sprague-Dawley, rat; for AUC: AUC0-∞; for half-life: male, po, 20 g/kg
Protocol: as §1
All of the rats were subjected to FST for 24 h before oral administration of the ZQ extract (20 g/kg). Plasma samples (about 0.5 mL) were gathered in a heparinized 1.5 mL Eppendorf tube from the venous plexus of the eye socket at 0.083, 0.25, 0.5, 0.75, 1.0, 1.5, 2.0, 3.0, 4.0, 6.0, 8.0, 12.0, and 24.0 h under anesthesia. Each sample was immediately centrifuged at 10000 rpm for 15 min to acquire the plasma. At last, the plasma was immediately placed at -80°C until measure.
All data were expressed as the mean ± SD. The plasma concentration of the 7 compounds during the experiment was calculated according to the daily calibration curve. The pharmacokinetic parameters, including Cmax (the peak drug plasma concentration), Tmax (the time to Cmax), AUC0-t (the area under the plasma concentration-time curve from 0 to time), AUC0-∞ (the area under the plasma concentration-time curve from 0 to time infinity), and t1/2 (the elimination half-life) were calculated by performing a non-compartment model using WinNonlin Professional Edition Version 2.1 (Pharsight Corporation, Sunnyvale, CA, United States). The immobile time in the FST test was evaluated by one-way ANOVA. Statistical significance was denoted at p < 0.05. Statistical analysis was operated by GraphPad Prism 5 software.

[5] = test system: rats undergoing the forced swimming test (FST); assay: Forced swimming test (FST), immobility time after acute oral treatment; format: in vivo, Sprague–Dawley rats; settings: Fluoxetine 20 mg/kg, single oral dose 0.5 h before test (Figure 1A); p < 0.05 vs vehicle
Protocol: ZQ lyophilized powder or fluoxetine (Eli Lilly, United States) was dissolved with saline. To evaluate dose-dependent effects, ZQ (5, 10, 20 g/kg) or fluoxetine (20 mg/kg) was orally administered as a single dosage 0.5 h before the test. To study the precise relationship between antidepressant effects and pharmacokinetics, ZQ (20 g/kg) was orally administered as a single dose 0.5, 1, 2, or 4 h before the test. Similarly, vehicle rats were orally administered an equal volume of saline using the identical procedure.
The swimming tests were conducted according to a previously described method ([Flores-Burgess et al., 2017]) with minor modifications. In brief, all experiments were operated between 12:00 h and 15:00 h in the light cycle. Each rat was individually put into a vertical glass cylinder with a diameter of 20 cm, water depth of 30 cm and water temperature of 25°C. A 15-min forced swimming test was conducted 24 h before the 5-min test. Each rat was deemed to be immobile when it stopped scrabbling, remained floating stilly in the water and only made necessary struggling to maintain its head over water. The total duration of immobility was recorded during the 5-min test.

[6] = plasma, male SD rats subjected to FST, mean ± SD, n = 6

| RE, -80°C for 1 month ([1]; high QC level) | RE, Room temperature for 12 h ([1]; high QC level) | RE, Three freeze-thaw cycles ([1]; high QC level) | RE, -80°C for 1 month ([1]; low QC level) | RE, Room temperature for 12 h ([1]; low QC level) | RE, Three freeze-thaw cycles ([1]; low QC level) | RE, -80°C for 1 month ([1]; middle QC level) | RE, Room temperature for 12 h ([1]; middle QC level) | RE, Three freeze-thaw cycles ([1]; middle QC level) | absorption into hippocampus and cortex (qualitative) [2] | AUC [4, 6] | AUC(0-t) [4, 6] | Cmax [4, 6] | Tmax [4, 6] | half-life [4, 6] | AUC0-∞ relative to other flavonoids ([4]; depressive rats) | T1/2 [4, 6] | Compound | AUC0-∞ in healthy rats compared with this study [3] | immobility time in the FST [5] |
| --- | --- | --- | --- | --- | --- | --- | --- | --- | --- | --- | --- | --- | --- | --- | --- | --- | --- | --- | --- |
| -1.14% | 4.48% | -6.73% | -9.94% | -4.37% | -7.88% | -8.19% | 5.03% | -7.62% | absorbed into the hippocampus and cortex | 153 ± 40 ng·h/mL | 151 ± 40.6 ng·h/mL | 53.9 ± 14.3 ng/mL | 0.38 ± 0.14 h | 1.28 ± 0.87 h |  |  | COc1ccc(-c2cc(=O)c3c(OC)c(OC)c(OC)c(OC)c3o2)cc1OC [Nobiletin, nobiletin] |  |  |
| 9.41% | 7.34% | 3.48% | 6.97% | 11.26% | 11.95% | 7.29% | 2.66% | -13.99% | absorbed into the hippocampus and cortex | 1710 ± 350 ng·h/mL | 1480 ± 259 ng·h/mL | 222 ± 53.9 ng/mL | 1.25 ± 0.42 h | > 7.3 h | at least fivefold higher | 7.31 ± 1.51 h | COc1ccc2ccc(=O)oc2c1CC(O)C(C)(C)O (stereo not drawn) [Meranzin hydrate] |  |  |

The next lines start with the compound.

| Compound | RE, -80°C for 1 month ([1]; high QC level) | RE, Room temperature for 12 h ([1]; high QC level) | RE, Three freeze-thaw cycles ([1]; high QC level) | RE, -80°C for 1 month ([1]; low QC level) | RE, Room temperature for 12 h ([1]; low QC level) | RE, Three freeze-thaw cycles ([1]; low QC level) | RE, -80°C for 1 month ([1]; middle QC level) | RE, Room temperature for 12 h ([1]; middle QC level) | RE, Three freeze-thaw cycles ([1]; middle QC level) | absorption into hippocampus and cortex (qualitative) [2] | AUC [4, 6] | AUC(0-t) [4, 6] | Cmax [4, 6] | Tmax [4, 6] | half-life [4, 6] | AUC0-∞ relative to other flavonoids ([4]; depressive rats) | T1/2 [4, 6] | AUC0-∞ in healthy rats compared with this study [3] | immobility time in the FST [5] |
| --- | --- | --- | --- | --- | --- | --- | --- | --- | --- | --- | --- | --- | --- | --- | --- | --- | --- | --- | --- |
| O=C1C[C@@H](c2ccc(O)cc2)Oc2cc(O)cc(O)c21 [Naringenin, naringenin] | 3.14% | -2.56% | -2.59% | -7.39% | 5.64% | -8.95% | -6.00% | 10.67% | -4.45% | absorbed into the hippocampus and cortex | 226 ± 64.9 ng·h/mL | 188 ± 38.9 ng·h/mL | 78.1 ± 22.2 ng/mL | 0.42 ± 0.13 h | 4.37 ± 1.19 h |  |  | higher than the data obtained in our experiment |  |
| COc1ccc([C@@H]2CC(=O)c3c(O)cc(O[C@@H]4O[C@H](CO)[C@@H](O)[C@H](O)[C@H]4O[C@@H]4O[C@@H](C)[C@H](O)[C@@H](O)[C@H]4O)cc3O2)cc1O [Neohesperidin, neohesperidin] | 2.03% | 10.82% | -0.30% | 3.31% | -5.80% | 7.23% | 3.13% | 7.28% | 5.88% | absorbed into the hippocampus and cortex | 239 ± 95.6 ng·h/mL | 234 ± 87.3 ng·h/mL | 90.8 ± 48.5 ng/mL | 0.29 ± 0.1 h | 2.02 ± 0.77 h |  |  | higher than the data obtained in our experiment |  |
| C[C@@H]1O[C@@H](OC[C@H]2O[C@@H](Oc3cc(O)c4c(c3)O[C@H](c3ccc(O)cc3)CC4=O)[C@H](O)[C@@H](O)[C@@H]2O)[C@H](O)[C@H](O)[C@H]1O [Narirutin, narirutin] | 3.03% | 5.53% | 7.94% | 8.49% | 12.43% | 9.69% | 7.57% | 1.84% | 8.89% | absorbed into the hippocampus and cortex | 44.9 ± 9.99 ng·h/mL | 42.6 ± 9.64 ng·h/mL | 31.1 ± 8.83 ng/mL | 0.33 ± 0.13 h | 1.49 ± 0.42 h |  |  |  |  |
| C[C@@H]1O[C@@H](O[C@H]2[C@H](Oc3cc(O)c4c(c3)O[C@H](c3ccc(O)cc3)CC4=O)O[C@H](CO)[C@@H](O)[C@@H]2O)[C@H](O)[C@H](O)[C@H]1O [Naringin, naringin] | 4.57% | 5.94% | 0.56% | 12.29% | 5.84% | 9.33% | 0.21% | 6.83% | 4.34% | absorbed into the hippocampus and cortex | 312 ± 89.5 ng·h/mL | 293 ± 92 ng·h/mL | 104 ± 18.8 ng/mL | 0.42 ± 0.13 h | 1.67 ± 0.57 h |  |  | higher than the data obtained in our experiment |  |
| COc1ccc([C@@H]2CC(=O)c3c(O)cc(O[C@@H]4O[C@H](CO[C@@H]5O[C@@H](C)[C@H](O)[C@@H](O)[C@H]5O)[C@@H](O)[C@H](O)[C@H]4O)cc3O2)cc1O [Hesperidin, hesperidin] | 0.02% | 4.88% | -1.62% | 6.36% | -1.88% | 4.08% | 4.15% | 0.91% | 5.80% | absorbed into the hippocampus and cortex | 179 ± 43.9 ng·h/mL | 136 ± 23.7 ng·h/mL | 46 ± 7.32 ng/mL | 0.42 ± 0.13 h | 2.93 ± 0.88 h |  |  |  |  |
| CNCCC(Oc1ccc(C(F)(F)F)cc1)c1ccccc1 (stereo not drawn) [Fluoxetine, fluoxetine] |  |  |  |  |  |  |  |  |  |  |  |  |  |  |  |  |  |  | 116.07 ± 28.65 s |
